The record followed here is PubChem BioAssay (NCI).

What all share (experiment): growth of human tumour cells (NCI), 48 h
The subject of test [1] is SNB-75 CNS.
The subject of test [2] is 786-0 renal.
The test system of test [3] is UO-31 renal.
The subject of test [4] is HT29 colon.
The test system of test [5] is SF-268 CNS.
In test [6] the test system is KM12 colon.
For test [7], the system named is SR leukemia.
The test system of test [8] is HCT-116 colon.
For test [9], the system named is ACHN renal.
For test [10], the system named is SK-MEL-2 melanoma.

Where “and” joins values, the source holds several entries; their conditions need not be identical. Equal entries are not always repeated.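 Dose response: 5 concentrations. Exposure: 48 h. Format: 96-well plates. Endpoint: linear interpolation; highest concentration if not reached. The concentration for 50% growth inhibition is given as GI50. TGI: concentration producing complete growth inhibition.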

Consider `OCC(O)C(OC1OC(CO)C(O)C(O)C1O)c1nn(-c2ccccc2)c2nc3cc(Cl)c(Cl)cc3cc12` (stereo not drawn), for which the TGI in test [1], in test [2], in test [3], in test [4], in [5] and in test [6] was more than 100 µM in each case. Moreover, the TGI in test [7], in test [8] and in test [9] was more than 100 µM each time.
For `C=CCNCCCN1C(=O)c2ccc3c4c(ccc(c24)C1=O)C(=O)N(CCCNCC=C)C3=O`, the GI50 is 0.999 µM in [1]; 0.831 µM in test [2]; 0.364 µM in test [10]; 0.327 µM in test [3]; 0.157 µM in [4]; 0.557 µM in [5]. The GI50 in test [6] was 0.417 µM; in test [7], 0.407 µM; in test [8], 0.279 µM; in [9], 0.268 µM. Besides, the TGI in test [1] came to 2.23 µM; in [2] it was 4.7 µM; in test [10] it was 1.7 µM; in test [3] it was 2.29 µM; in test [4] it was 0.499 µM; in test [5] it was 4.41 µM. Also, the TGI in test [6] was 1.62 µM; in test [7] it was 2.08 µM; in [8], 3.39 µM; in test [9], 4.38 µM.
`NNC(=O)CCC(=O)Nc1cc(Cl)c(Cl)cc1Cl`: the TGI in [1], in [2], in [10], in test [3], in [4] and in test [5] was more than 100 µM each time. Besides, the TGI in test [6], in test [7], in [8] and in test [9] was more than 100 µM each time.
As to `COc1ccc(C/C(C)=C(\c2ccc(OCCN3CCOCC3)cc2)c2ccc(OC(=O)Cc3ccccc3)cc2)cc1`, the GI50 is 0.692 µM in test [1]; 0.51 µM in [2]; 0.657 µM in test [10]; 0.422 µM in test [3]; 0.288 µM in test [4]; 0.96 µM in test [5]. Also, the GI50 in test [6] was 1.14 µM; in test [7], 0.648 µM; in test [8], 0.496 µM; in test [9], 0.99 µM. Further, the TGI in [1] was 4.47 µM; in test [2], 0.994 µM; in [10], 1.25 µM; in [3], 0.952 µM; in [4] it was 0.716 µM; in test [5] it was 12.8 µM. Further, the TGI is 3.37 µM in test [6], 1.73 µM in test [7], 0.989 µM in test [8] and 3.38 µM in test [9].
Take `O=C1/C(=C/c2ccccc2F)CNC/C1=C\c1ccccc1F`: the GI50 is 2 µM and 1.54 µM in [1]; 0.233 µM and 0.739 µM in test [2]; 2.53 µM and 2.77 µM in [10]; 0.567 µM and 0.753 µM in [3]; 0.261 µM and 0.242 µM in test [4]; 0.62 µM and 0.309 µM in test [5]. Also, the GI50 in test [6] was 0.189 µM and 0.197 µM; in test [7], 0.0772 µM and 0.245 µM; in test [8], 0.224 µM and 0.177 µM; in test [9] it was 4.86 µM and 0.779 µM. The TGI is 4.74 µM and 4.33 µM in test [1]; 0.505 µM and 2.15 µM in [2]; 6.18 µM and 6.46 µM in [10]; 1.8 µM and 2.05 µM in [3]; 1.17 µM and 0.543 µM in test [4]; 5.37 µM and 1.21 µM in [5]. The TGI in test [6] was 0.519 µM and 0.39 µM; in test [7], 0.361 µM and 0.813 µM; in test [8], 0.549 µM and 0.341 µM; in [9], 8.55 µM and 2.58 µM.
Turning to `COc1cc(C(O)c2nc3ccccc3s2)cc(OC)c1OC` (stereo not drawn), the GI50 is 33.2 µM in [1]; more than 100 µM in test [2]; more than 100 µM in test [10]; 6.2 µM in [3]; more than 100 µM in test [4]; more than 100 µM in test [5]. The GI50 was 78.3 µM in test [6], 9.01 µM in test [7], 45.4 µM in test [8] and 65.5 µM in test [9]. The TGI in test [1], in test [2], in test [10], in test [3], in test [4] and in test [5] was more than 100 µM each time. The TGI in test [6], in [7], in test [8] and in [9] was more than 100 µM each time.
Turning to `Nc1ncnc2c1ncn2CC(O)C(=O)O` (stereo not drawn), the TGI in test [1], in test [2], in [10], in test [3], in test [4] and in test [5] was more than 100 µM throughout. The TGI in test [6], in test [7], in test [8] and in [9] was more than 100 µM in each case.
`N#C/C(=C1\NN=C(N)C(c2ccc(Cl)cc2)=C1O)c1ccc(Cl)cc1`: the TGI in [1], in [2], in test [3], in [4], in [5] and in test [6] was more than 100 µM throughout. The TGI in [7], in [8] and in test [9] was more than 100 µM in each case.
Take `COC(=O)C1C2C=CC(C2)C1(C(=O)OC)S(=O)CC12CCC(CC1O)C2(C)C` (stereo not drawn): the TGI in test [1], in test [2], in test [10], in test [3], in [4] and in test [5] was more than 100 µM in each case. For the same molecule, the TGI in [6] is more than 100 µM; in [7], 63.1 µM; in test [8] it was more than 100 µM; in test [9], more than 100 µM.
With `CC(=O)Nc1ccccc1C=C1c2ccccc2-c2ccccc21`, the TGI in test [1] was 33.7 µM; in test [2], 45.2 µM; in test [10] it was more than 100 µM; in [3], 38.5 µM; in test [4], more than 100 µM; in test [5], more than 100 µM. The TGI in test [6], in test [7], in test [8] and in test [9] was more than 100 µM each time.
As for `C/C(=C\c1ccn(-c2ccc(N)c(F)c2)n1)[C@@H]1C[C@@H]2O[C@]2(C)CCC[C@H](C)[C@H](O)[C@@H](C)C(=O)C(C)(C)[C@@H](O)CC(=O)O1`, the GI50 in test [1] is less than 0.005 µM; in test [2] it was 0.0253 µM; in test [10], 0.0321 µM; in test [3], 0.0982 µM; in test [4] it was 0.00756 µM; in [5], 0.0418 µM. Also, the GI50 in test [6] is 0.00857 µM; in test [7] it was 0.00915 µM; in [8] it was 0.00796 µM; in [9], 0.234 µM. Moreover, the TGI in test [1] is 0.0725 µM; in test [2], more than 50 µM; in test [10], more than 50 µM; in test [3], more than 50 µM; in test [4], more than 15.9 µM; in test [5], more than 50 µM. Further, the TGI in test [6], in test [7], in [8] and in [9] was more than 50 µM throughout.
For the molecule `O=C(/C=C/c1cccs1)c1ccc(Nc2nc(Nc3ccc(F)cc3)nc(Nc3ccc(F)cc3)n2)cc1`, the GI50 in test [1] was 22.5 µM; in test [2], 38.5 µM; in test [10], 44.4 µM; in test [3], 19.5 µM; in test [4] it was 22.2 µM; in [5] it was 30.2 µM. Moreover, the GI50 in test [6] is 16.3 µM; in [7], 14.7 µM; in test [8], 23.6 µM; in [9], 86.5 µM. The TGI is 70.4 µM in test [1]; more than 100 µM in [2]; more than 100 µM in test [10]; 79.7 µM in [3]; 70.5 µM in [4]; more than 100 µM in test [5]. In addition, the TGI in test [6] is 45.2 µM; in [7] it was 60.1 µM; in [8], more than 100 µM; in test [9], more than 100 µM.
`COC1(O)C(=O)c2ccccc2OC1(OC)c1ccccc1` (stereo not drawn): the TGI in [1], in test [2], in [10], in test [4], in [5] and in [7] was more than 100 µM in each case. Also, the TGI in [8] and in [9] was more than 100 µM each time.
With `O/N=C/c1cc2c(cc1Br)OCO2`, the TGI in [1], in test [2], in test [10], in [3], in test [4] and in test [6] was more than 100 µM in each case. Moreover, the TGI in [7], in test [8] and in [9] was more than 100 µM each time.
For `Cc1ccc(/C=C2/SC(Nc3nc(-c4nc(NC5=NC(=O)/C(=C\c6ccc(C)cc6)S5)sc4C)c(C)s3)=NC2=O)cc1`, the GI50 in [2] is 0.487 µM; in test [10], 36.3 µM; in [3], 6.03 µM; in test [4] it was 3.62 µM; in [5], 2.51 µM; in test [6], 0.289 µM. Also, the figures for the GI50 in test [7], in test [8] and in test [9] were 0.373 µM, 9.2 µM and 0.559 µM, respectively. In addition, the TGI in [2] was 8.4 µM; in test [10], more than 50 µM; in test [3], more than 50 µM; in test [4] it was more than 50 µM; in test [5], more than 50 µM; in [6] it was 18.6 µM. In addition, the TGI in test [7] is more than 50 µM; in test [8] it was 20.9 µM; in [9], more than 29.6 µM.
As to `COC(C(=O)C(O)C(C)O)C1Cc2cc3cc(OC4CC(OC(C)=O)C(OC5CC(O)C(OC)C(C)O5)C(C)O4)cc(O)c3c(O)c2C(=O)C1OC1CC(OC2CC(OC3CC(C)(O)C(OC(=O)C(C)C)C(C)O3)C(O)C(C)O2)C(O)C(C)O1` (stereo not drawn), the GI50 in test [1] is 0.00157 µM; in [2], 0.0763 µM and 0.0168 µM; in [10] it was 0.0189 µM; in test [3] it was 0.399 µM and 0.46 µM. In addition, the TGI is 0.0626 µM and 0.0109 µM and 0.0075 µM in test [1]; 0.826 µM in test [2]; 0.042 µM and 0.0104 µM in test [10]; 4.1 µM and 5.22 µM in test [3]; 0.991 µM and 3.48 µM and 2.1 µM in [4]; 0.385 µM in [7]. In test [9], this molecule gave a TGI of 0.198 µM.
Turning to `Nc1c(Br)c(=O)[nH]c(=O)n1COCCO`, the TGI in [1], in test [2], in [3], in [4], in test [5] and in test [6] was more than 100 µM throughout. Further, the TGI in [7], in [8] and in [9] was more than 100 µM in each case.
Take `CCC(CC)n1cc(C(=O)NC(=O)NCCCCCOC(=O)CCCCCCCCCCC(=O)OCCCCCNC(=O)NC(=O)c2cn(C(CC)CC)c(=O)[nH]c2=O)c(=O)[nH]c1=O`: the TGI is 53.5 µM in test [1]; more than 100 µM in test [2]; more than 100 µM in test [3]; more than 100 µM in test [4]; more than 100 µM in [5]; more than 100 µM in [6]. In addition, the TGI in test [7], in [8] and in test [9] was more than 100 µM throughout.
For the molecule `COc1ccc(-c2cc(-c3ccccc3)nc(N3CCN(CCNc4ccnc5cc(Cl)ccc45)CC3)n2)cc1`, the GI50 in [1] was 14.9 µM; in [2] it was 1.52 µM; in test [10] it was 6.78 µM; in [3], 1.4 µM; in test [5], 1.75 µM; in test [6], 1.94 µM. Besides, the GI50 is 0.31 µM in test [7] and 3.8 µM in test [9]. Also, the TGI was found to be 28.8 µM in test [1]; 2.94 µM in test [2]; 20.8 µM in test [10]; 3.37 µM in test [3]; 3.81 µM in test [5]; 4.04 µM in [6]. For the same molecule, the TGI in test [7] was more than 100 µM; in [9] it was 14.4 µM.
